Like-named read-outs stand apart in the source and are kept apart here. Where a SMILES comes first, the peptide text is derived from it. [ ]: non-standard residue; d: D form.
Tests used:
[1] = system: bFGF-induced angiogenesis; test: CAM assay, growth factor-induced angiogenesis, intravenous application; type: in vivo, chick; conditions: for reducing the number of branch points of new blood vessels: FIG. 26, in decreasing order of inhibition 14, 10, 9, 12, compared to bFGF control and compound 7; for inhibition of formation of new blood vessels induced by bFGF: 250 μg/ml, 18 hours after bFGF treatment, FIG. 12; for anti-angiogenic properties (branch points): FIG. 27, 100 μg/embryo, compared to bFGF control and compound 16
Description: J. Pathol., 79:597 (1975). CAMs were prepared from chick embryos for subsequent induction of angiogenesis and inhibition thereof as described in Examples 4 and 5, respectively. Ten day old chick embryos were obtained from McIntyre Poultry (Lakeside, Calif.) and incubated at 37° C. with 60% humidity. A small hole was made through the shell at the end of the egg directly over the air sac with the use of a small crafts drill (Dremel, Division of Emerson Electric Co. Racine Wis.). A second hole was drilled on the broad side of the egg in a region devoid of embryonic blood vessels determined previously by candling the egg. […] A 1.0 centimeter (cm)×1.0 cm square window was cut through the shell over the dropped CAM with the use of a small model grinding wheel (Dremel). The small window allowed direct access to the underlying CAM.
Angiogenesis was induced by placing a 5 millimeter (mm)×5 mm Whatman filter disk (Whatman Filter paper No.1) saturated with Hanks Balanced Salt Solution (HBSS, GIBCO, Grand Island, N.Y.) or HBSS containing 150 nanograms/milliliter (ng/ml) recombinant basic fibroblast growth factor (bFGF) (Genzyme, Cambridge, Mass.) on the CAM of a 10-day chick embryo in a region devoid of blood vessels and the windows were latter sealed with tape. In other assays, 125 ng/ml bFGF was also effective at inducing blood vessel growth. For assays where inhibition of angiogenesis ws evaluated with intravenous injections of antagonists, angiogenesis was first induced with 1-2 μg/ml bFGF in fibroblast growth medium. Angiogenesis was monitored by photomicroscopy after 72 hours. CAMs were snap frozen, and 6 um cryostat sections were fixed with acetone and stained by immunofluorescence as described in Example 3C with 10 μg/ml of either anti-β1 monoclonal antibody CSAT or LM609.
For CAM preparations in which angiogenesis was induced with 1-2 μg/ml bFGF as previously described, synthetic peptides 69601 (control) and 66203 (SEQ ID NO: 5) were separately intravenously injected into CAM preparations 18 hours after bFGF induction of angiogenesis. The preparations were maintained for an additional 36-40 hours after which time the number of branch points were determined as previously described.
In other assays, peptide 85189 (SEQ ID NO: 15) was evaluated for inhibiting bFGF-induced angiogenesis in the CAM assay over a dosage range of 10 μg/embryo to 300 μg/embryo. The assay was performed as previously described.
In still further assays, peptide 85189 was compared to peptides 69601 and 66203 for anti-angiogenesis activity. The assay was performed as described above with the exception that 50 μg peptide were used.
The effectiveness of the different salt formulations of peptide 85189 was also evaluated in similar bFGF-induced CAM assays. The peptides were used at 100 μg/embryo. […] Untreated CAMs, labeled as “no cytokine” had approximately […] as many branch points as that seen with bFGF treatment, respectively 70 versus 190.
With the above-described protocol, the effect of MMP-2 fusion proteins, CTMMP-2(2-4), also referred to as CTMMP-2(445-467) and CTMMP-2(10-1), also referred to as CTMMP-2(274-637) was also evaluated. The assay was performed as previously described with the exception that 50 μg of fusion protein was administered to the bFGF-treated embryos. The effect of fusion protein treatment was assessed at 24 hours, 48 hours and 72 hours.
The 10 day old CAM preparation was used as previously described in Example 5A. Twenty-four hours after bFGF-induced angiogenesis was initiated, the organic peptidomimetics referred to as compounds 16 (81218), 17 (87292) and 18 (87293) were separately intravenously injected into the CAM preparation in a volume of 100 μl at a concentration of 1 mg/ml (100 μg/embryo) in 20% tetraglycol-PBS at pH 7.0. In parallel assays, compounds 7 (96112), 9 (99799), 10 (96229), 12 (112854) and 14 (96113) were similarly evaluated. […]

αvβ3 = target: T1, αvβ3 (Homo sapiens, UniProt P05106+P06756); test: Ligand-receptor binding assay, immobilized αvβ3; conditions: for preference of inhibition of fibrinogen binding, αvβ3 versus αIIbβ3: comparison of half-maximal concentrations of Table 2
T1 construct: selected purified integrins were separately immobilized in Titertek microtiter wells
Text: (§1) Herein described is a method of identifying antagonists in a ligand-receptor binding assay in which the receptor is immobilized to a solid support and the ligand and antagonist are soluble. Also described is a ligand-receptor binding assay in which the ligand is immobilized to a solid support and the receptor and antagonists are soluble.
(§2) Briefly, selected purified integrins were separately immobilized in Titertek microtiter wells at a coating concentration of 50 nanograms (ng) per well. The purification of the receptors used in the ligand-receptor binding assays are well known in the art and are readily obtainable with methods familiar to one of ordinary skill in the art. After incubation for 18 hours at 4° C., nonspecific binding sites on the plate were blocked with 10 milligrams/milliliter (mg/ml) of bovine serum albumin (BSA) in Tris-buffered saline. […] Radiolabeled ligands were used at concentrations of 1 nM and binding was challenged separately with unlabeled synthetic peptides.
(§3) Following a three hour incubation, free ligand was removed by washing and bound ligand was detected by gamma counting. […] The IC50 data in micromoles (IC50 μM) are expressed as the average of duplicate data points±the standard deviation as shown in Table 2.

αIIbβ3 = target: T2, αIIbβ3 (Homo sapiens, UniProt P05106+P08514); test: Ligand-receptor binding assay, immobilized αIIbβ3
T2 construct: selected purified integrins were separately immobilized in Titertek microtiter wells
Text: as §1, §2, §3

[2] = radiolabeled fibrinogen, average of duplicate data points ± standard deviation, read-out: αvβ3 (IC50 μM)
[3] = radiolabeled fibrinogen, average of duplicate data points ± standard deviation, read-out: αIIbβ3 (IC50 μM)

T1 sequence (P06756 31-889 limits assumed): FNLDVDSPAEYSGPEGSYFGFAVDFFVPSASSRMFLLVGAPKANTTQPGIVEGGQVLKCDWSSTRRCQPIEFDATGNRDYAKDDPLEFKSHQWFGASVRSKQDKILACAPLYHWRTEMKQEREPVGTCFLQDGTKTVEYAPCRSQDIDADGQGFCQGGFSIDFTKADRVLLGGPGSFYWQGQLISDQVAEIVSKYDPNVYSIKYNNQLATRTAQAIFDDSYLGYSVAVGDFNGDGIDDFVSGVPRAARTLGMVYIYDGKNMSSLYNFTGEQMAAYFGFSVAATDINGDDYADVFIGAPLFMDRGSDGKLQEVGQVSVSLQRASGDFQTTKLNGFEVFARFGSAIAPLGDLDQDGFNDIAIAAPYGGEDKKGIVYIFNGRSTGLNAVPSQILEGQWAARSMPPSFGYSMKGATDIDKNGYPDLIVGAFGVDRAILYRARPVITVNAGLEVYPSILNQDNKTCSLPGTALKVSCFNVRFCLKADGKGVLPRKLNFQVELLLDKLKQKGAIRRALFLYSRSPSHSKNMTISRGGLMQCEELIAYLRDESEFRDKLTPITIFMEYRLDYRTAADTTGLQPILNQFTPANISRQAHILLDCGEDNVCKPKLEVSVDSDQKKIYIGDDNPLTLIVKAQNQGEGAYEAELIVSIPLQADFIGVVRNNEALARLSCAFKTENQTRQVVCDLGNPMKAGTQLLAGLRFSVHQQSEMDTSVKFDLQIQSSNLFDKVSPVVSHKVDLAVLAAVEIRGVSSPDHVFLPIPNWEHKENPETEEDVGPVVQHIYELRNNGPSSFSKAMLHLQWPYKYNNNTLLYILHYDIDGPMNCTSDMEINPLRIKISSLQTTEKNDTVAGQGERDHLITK
T1 sequence (P06756 891-1048 partner limits assumed): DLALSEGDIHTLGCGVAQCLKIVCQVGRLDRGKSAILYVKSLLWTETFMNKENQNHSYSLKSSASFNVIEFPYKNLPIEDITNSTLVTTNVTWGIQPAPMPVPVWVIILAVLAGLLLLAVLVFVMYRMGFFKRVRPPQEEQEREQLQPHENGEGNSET
T1 sequence (P05106 27-788): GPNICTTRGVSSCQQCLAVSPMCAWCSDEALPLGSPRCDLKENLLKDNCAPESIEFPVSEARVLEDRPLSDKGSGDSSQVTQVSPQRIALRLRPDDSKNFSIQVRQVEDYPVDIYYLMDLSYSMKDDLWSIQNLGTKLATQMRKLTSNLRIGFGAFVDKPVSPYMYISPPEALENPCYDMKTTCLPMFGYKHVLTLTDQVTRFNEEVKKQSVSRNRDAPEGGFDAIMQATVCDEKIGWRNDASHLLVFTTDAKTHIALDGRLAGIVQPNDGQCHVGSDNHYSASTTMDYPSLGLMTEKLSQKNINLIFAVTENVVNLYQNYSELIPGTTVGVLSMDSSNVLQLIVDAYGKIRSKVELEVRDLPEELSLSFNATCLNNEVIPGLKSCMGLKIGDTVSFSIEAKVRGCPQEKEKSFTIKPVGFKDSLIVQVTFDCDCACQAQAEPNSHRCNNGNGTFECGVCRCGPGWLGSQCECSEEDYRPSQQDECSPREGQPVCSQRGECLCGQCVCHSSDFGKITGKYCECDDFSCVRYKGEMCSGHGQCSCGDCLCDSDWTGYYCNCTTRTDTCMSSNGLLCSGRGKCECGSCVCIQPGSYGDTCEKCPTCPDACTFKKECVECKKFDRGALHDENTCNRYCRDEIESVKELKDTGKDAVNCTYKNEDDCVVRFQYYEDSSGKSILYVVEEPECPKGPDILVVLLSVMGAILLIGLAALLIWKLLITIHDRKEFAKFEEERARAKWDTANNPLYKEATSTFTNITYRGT
T2 sequence (P08514 32-887 limits assumed): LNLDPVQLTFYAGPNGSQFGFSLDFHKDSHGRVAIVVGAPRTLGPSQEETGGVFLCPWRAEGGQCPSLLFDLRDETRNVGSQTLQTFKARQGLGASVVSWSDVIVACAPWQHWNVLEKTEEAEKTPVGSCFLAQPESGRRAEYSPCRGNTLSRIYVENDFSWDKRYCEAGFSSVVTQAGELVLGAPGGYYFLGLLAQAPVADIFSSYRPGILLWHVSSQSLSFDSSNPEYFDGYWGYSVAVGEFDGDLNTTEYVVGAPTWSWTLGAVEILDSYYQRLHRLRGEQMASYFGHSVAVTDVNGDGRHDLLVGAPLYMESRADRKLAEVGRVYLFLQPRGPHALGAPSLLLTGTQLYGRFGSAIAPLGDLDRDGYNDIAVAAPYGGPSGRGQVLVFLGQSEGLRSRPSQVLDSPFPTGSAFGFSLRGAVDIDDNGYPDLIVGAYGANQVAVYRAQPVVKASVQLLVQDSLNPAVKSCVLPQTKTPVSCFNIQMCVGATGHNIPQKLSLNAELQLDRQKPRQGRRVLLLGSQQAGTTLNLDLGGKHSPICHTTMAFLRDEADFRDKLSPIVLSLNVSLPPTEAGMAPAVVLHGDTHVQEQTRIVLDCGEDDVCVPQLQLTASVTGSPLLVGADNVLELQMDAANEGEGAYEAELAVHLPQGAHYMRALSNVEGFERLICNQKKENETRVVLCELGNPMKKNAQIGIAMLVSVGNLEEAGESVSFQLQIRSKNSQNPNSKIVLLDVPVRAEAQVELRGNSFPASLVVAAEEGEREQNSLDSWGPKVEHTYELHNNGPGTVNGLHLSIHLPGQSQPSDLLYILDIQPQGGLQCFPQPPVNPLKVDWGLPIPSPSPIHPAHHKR
T2 sequence (P08514 891-1039 partner limits assumed): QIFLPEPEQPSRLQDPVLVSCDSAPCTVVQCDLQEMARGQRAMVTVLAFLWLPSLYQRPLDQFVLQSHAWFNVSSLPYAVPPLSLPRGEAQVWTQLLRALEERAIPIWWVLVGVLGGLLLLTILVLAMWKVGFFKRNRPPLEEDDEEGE
T2 sequence (P05106 27-788): as the sequence (P05106 27-788) above

## Cl.Cl.N=C(N)c1ccc(N2CC(COc3ccc(CC(N)C(=O)O)cc3)OC2=O)cc1 (centres unmarked)
other
  melting point: 165 °C (dec.)

## CCCCS(=O)(=O)N[C@@H](Cc1ccc(OCCCCNC(=N)N)cc1)C(=O)O [Compound 7]
other
  melting point: 70 °C

## CC(C)(C)OC(=O)N[C@@H](Cc1ccc(OCCCCNC(=N)N)cc1)C(=O)O [Compound 9]
[1]
  reducing the number of branch points of new blood vessels: effective at reducing the number of branch points

## CCCCS(=O)(=O)N[C@H](Cc1ccc(OCCCCNC(=N)N)cc1)C(=O)O [Compound 10]
[1]
  inhibition of formation of new blood vessels induced by bFGF: almost completely inhibited
  reducing the number of branch points of new blood vessels: effective at reducing the number of branch points
other
  melting point: 70 °C

## CC1(C)C2CCC1(CS(=O)(=O)N[C@@H](Cc1ccc(OCCCCNC(=N)N)cc1)C(=O)O)C(=O)C2 (some centres unmarked) [Compound 12]
[1]
  reducing the number of branch points of new blood vessels: effective at reducing the number of branch points

## CCCCS(=O)(=O)N[C@@H](Cc1ccc(OCCCCCNC(=N)N)cc1)C(=O)O [Compound 14]
[1]
  inhibition of formation of new blood vessels induced by bFGF: almost completely inhibited
  reducing the number of branch points of new blood vessels: effective at reducing the number of branch points

## CCCS(=O)(=O)NC(Cc1ccc(OCC2CN(c3ccc(C(=N)N)cc3)C(=O)O2)cc1)C(=O)O (centres unmarked) [Compound 17, 3-(4-amidinophenyl)-5-(4-(2-carboxy-2-N-propyl-sulfonylaminoethyl)phenoxy)methyl-2-oxazolidinone]
[1]
  anti-angiogenic properties (branch points): exhibited anti-angiogenic properties

## CCS(=O)(=O)NC(Cc1ccc(OCC2CN(c3ccc(C(=N)N)cc3)C(=O)O2)cc1)C(=O)O (centres unmarked) [Compound 18, 3-(4-amidinophenyl)-5-(4-(2-carboxy-2-N-ethyl-sulfonylaminoethyl)phenoxy)methyl-2-oxazolidinone]
[1]
  anti-angiogenic properties (branch points): exhibited anti-angiogenic properties

## CC(C)C[C@@H]1NC(=O)[C@@H](Cc2ccccc2)NC(=O)[C@H](CC(=O)O)NC(=O)CNC(=O)[C@H](CCCNC(=N)N)NC(=O)[C@H](C)NC1=O [Peptide 62175, cyclo (ARGDfL)] (cyclo(ARGD[dF]L))
αvβ3
  preference of inhibition of fibrinogen binding, αvβ3 versus αIIbβ3: either not as effective in blocking fibrinogen binding to αvβ3 or exhibited preferential inhibition of fibrinogen binding to αIIbβ3
αvβ3; [2]
  IC50: 1.05 ± 0.07 µM
αIIbβ3; [3]
  IC50: 0.63 ± 0.18 µM

## CC(C)C[C@@H]1NC(=O)[C@@H](Cc2ccccc2)NC(=O)[C@H](CC(=O)O)NC(=O)CNC(=O)[C@H](CCCNC(=N)N)NC(=O)CNC1=O [Peptide 62179, cyclo (GRGDfL)] (cyclo(GRGD[dF]L))
αvβ3
  preference of inhibition of fibrinogen binding, αvβ3 versus αIIbβ3: either not as effective in blocking fibrinogen binding to αvβ3 or exhibited preferential inhibition of fibrinogen binding to αIIbβ3
αvβ3; [2]
  IC50: 0.395 ± 0.21 µM
αIIbβ3; [3]
  IC50: 0.055 ± 0.007 µM

## CC(C)[C@@H]1NC(=O)[C@H](Cc2ccccc2)NC(=O)[C@H](CC(=O)O)NC(=O)CNC(=O)[C@@H](CCCNC(=N)N)NC(=O)CNC1=O [Peptide 62181, cyclo (GrGDFV)] (cyclo(G[dR]GDFV))
αvβ3
  preference of inhibition of fibrinogen binding, αvβ3 versus αIIbβ3: preferential inhibition of fibrinogen binding to the αvβ3 receptor
αvβ3; [2]
  IC50: 1.96 ± 0.62 µM
αIIbβ3; [3]
  IC50: 15 ± 7.84 µM

## CC(C)[C@@H]1NC(=O)[C@@H](Cc2ccccc2)NC(=O)[C@H](CC(=O)O)NC(=O)[C@H](C)NC(=O)[C@H](CCCN=C(N)N)NC1=O [Peptide 62185, cyclo (RADfV)] (cyclo(AD[dF]VR))
αvβ3; [2]
  IC50: 0.885 ± 0.16 µM
αIIbβ3; [3]
  IC50: 100 ± 0.001 µM

## CC(C)[C@@H]1NC(=O)[C@@H](Cc2ccccc2)NC(=O)[C@H](CC(=O)O)NC(=O)[C@H](C)NC(=O)[C@H](CCCNC(=N)N)NC1=O [Peptide 62185, cyclo (RADfV)] (cyclo(RAD[dF]V))
αvβ3
  preference of inhibition of fibrinogen binding, αvβ3 versus αIIbβ3: preferential inhibition of fibrinogen binding to the αvβ3 receptor

## CSCC[C@H](NC(=O)[C@@H]1CCCN1C(=O)[C@H](CC(N)=O)NC(=O)CNC(=O)[C@H](CC(C)C)NC(=O)[C@H](CC(=O)O)NC(=O)[C@H](CS)NC(=O)[C@@H](NC(=O)[C@@H](NC(=O)[C@H](CCC(N)=O)NC(=O)[C@H](CCCNC(=N)N)NC(=O)[C@@H](N)[C@@H](C)O)C(C)C)C(C)C)C(=O)O [Peptide 62411] (H-TRQVVCDLGNPM-OH)
αvβ3
  IC50: > 100 µM
αIIbβ3
  IC50: > 100 µM
αIIbβ3; read-out: αIIbβ3 IC50 (μM) VN, vitronectin, individual assay
  IC50: > 100 µM

## CC(C)C[C@H](NC(=O)[C@H](C)NC(=O)[C@H](CCC(=O)O)NC(=O)[C@H](CC(N)=O)NC(=O)[C@H](CC(N)=O)NC(=O)[C@H](CCCNC(=N)N)NC(=O)[C@@H](NC(=O)[C@@H](NC(=O)CN)C(C)C)C(C)C)C(=O)N[C@@H](C)C(=O)N[C@@H](CCCNC(=N)N)C(=O)N[C@@H](CC(C)C)C(=O)N[C@@H](CO)C(=O)O [Peptide 62503] (H-GVVRNNEALARLS-OH)
αvβ3; fibrinogen, individual assay, read-out: αvβ3 IC50 (μM) FG
  IC50: > 100 µM
αIIbβ3; fibrinogen, individual assay, read-out: αIIbβ3 IC50 (μM) FG
  IC50: > 100 µM
αIIbβ3; vitronectin, individual assay, read-out: αIIbβ3 IC50 (μM) VN
  IC50: > 100 µM
